Assay results reported in patent publication US9919998B2, “Antibacterial agents: Nα-aroyl-N-aryl-phenylalaninamides” (priority 2014, dated 2018).
Values after ≈ are worked out from the molar mass of the structure shown. Like-named read-outs stand apart in the source and are kept apart here.

What was measured:
[1] = system: Mycobacterium tuberculosis H37Rv; assay: Microplate Alamar Blue assay (MABA) MIC, M. tuberculosis; type: cell-based; conditions: read-out: MIC Mycobacterium tuberculosis H37Rv
Text: (§1) Minimal inhibitory concentrations (MICs) in Mycobacterium tuberculosis H37Rv and Mycobacterium avium ATCC 25291 were quantified using microplate Alamar Blue assays as described (MABA; [Collins, L. & Franzblau, S. (1997) Microplate Alamar Blue assay versus BACTEC 460 system for high-throughput screening of compounds against Mycobacterium tuberculosis and Mycobacterium avium. Antimicrob. Agents Chemother. 41, 1004-1009]).

[2] = system: Mycobacterium avium ATCC 25291; assay: Microplate Alamar Blue assay (MABA) MIC, M. avium; type: cell-based; conditions: ATCC25291, M. avium ATCC 25291
Text: as §1

[3] = system: Mycobacterium smegmatis ATCC 19420; assay: Broth microdilution MIC, M. smegmatis; type: cell-based; conditions: Mycolicibacterium smegmatis
Text: (§2) MICs in Mycobacterium smegmatis ATCC 19420 and Mycobacterium smegmatis ATCC 19420 derivatives were quantified using broth microdilution assays as described [Clinical and Laboratory Standards Institute (CLSI/NCCLS) (2009) Methods for Dilution Antimicrobial Susceptibility Tests for Bacteria That Grow Aerobically; Approved Standard, Eighth Edition. CLIS Document M07-A8 (CLIS, Wayne Pa.)].

[4] = system: AAP1-resistant mutants, derivatives of M. smegmatis ATCC19420; assay: MICs in AAP1-resistant mutants (resistance and cross-resistance levels); type: cell-based, Mycobacterium smegmatis; conditions: MICs in AAP1-resistant mutants
[5] = system: rifampin-resistant mutants, derivatives of M. smegmatis ATCC19420; assay: MICs in rifampin-resistant mutants (cross-resistance levels); type: cell-based, Mycobacterium smegmatis
Text: as §2

[6] = system: Vero E6 ATCC CRL1586 cells; assay: Mammalian-cell cytotoxicity, minimal cytotoxic concentration (CellTiter96); type: cell-based
Protocol: Minimal cytotoxic concentrations (MCCs) against mammalian cells in culture were determined using Vero E6 ATCC CRL1586 cells and the CellTiter96 assay kit (Promega, Inc.). […]

[7] = biological target: Mycobacterium tuberculosis RNA polymerase (Mycobacterium tuberculosis, UniProt P9WGY7+P9WGY9); assay: Run-off transcription assay with Mycobacterium tuberculosis RNA polymerase (radiochemical); type: biochemical; conditions: IC50 Mycobacterium tuberculosis RNA polymerase
Protocol: Run-off transcription assays with Mycobacterium tuberculosis RNA polymerase were performed using reaction mixtures containing (10 μl): 0-100 μM test compound, 75 nM Mycobacterium tuberculosis RNA polymerase core enzyme, 300 nM Mycobacterium tuberculosis σ^A, 20 nM 130 bp DNA fragment containing positions −100 to −1 of the bacteriophage […] N25 promoter followed by positions +1 to +30 of the lacUV5-15 promoter of [Mukhopadhyay, J., Kapanidis, A., Mekler, V., Kortkhonjia, E., Ebright, Y., Ebright, R. (2001) Cell 106, 453-463], 25 nM [alpha-^32P]UTP (600 Bq/pmol) for an initial 2 min at 37° C. and 100 μM [alpha-^32P]UTP (6 Bq/pmol) for a subsequent 5 min at 37° C., 100 μM ATP, 100 μM GTP, 100 μM UTP, 100 μM CTP, 40 mM Tris-HCl, pH 8.0, 80 mM NaCl, 5 mM MgCl2, 2.5 mM DTT, and 12.7% glycerol. Reactions were terminated by addition of […] 80% formamide, 10 mM EDTA, 0.04% bromophenol blue, and 0.04% xylene cyanol, followed by heating for 5 min at 90° C. Reaction products were resolved by 15% urea-PAGE, and quantified using a storage-phosphor scanner.

[8] = system: Mycobacterium smegmatis, Mycobacterium tuberculosis, and Mycobacterium avium; assay: organism not typed; type: cell-based; conditions: read-out: MICs, inhibition of mycobacterial growth
[9] = ATCC19420, M. smegmatis ATCC 19420, read-out: MIC Mycobacterium smegmatis ATCC 19420

Chain of Mycobacterium tuberculosis RNA polymerase (P9WGZ1 whole entry, the tested form may be a part): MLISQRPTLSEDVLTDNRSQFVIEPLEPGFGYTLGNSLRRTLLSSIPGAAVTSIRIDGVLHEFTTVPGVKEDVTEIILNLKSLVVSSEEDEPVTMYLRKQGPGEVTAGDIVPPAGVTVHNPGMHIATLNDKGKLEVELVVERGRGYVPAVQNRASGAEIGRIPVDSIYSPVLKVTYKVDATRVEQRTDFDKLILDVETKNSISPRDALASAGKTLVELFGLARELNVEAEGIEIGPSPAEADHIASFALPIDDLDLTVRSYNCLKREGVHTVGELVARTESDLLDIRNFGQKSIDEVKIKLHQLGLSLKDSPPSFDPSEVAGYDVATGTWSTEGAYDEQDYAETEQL
Chain of Mycobacterium tuberculosis RNA polymerase (P9WGY5 whole entry, further chain, the tested form may be a part): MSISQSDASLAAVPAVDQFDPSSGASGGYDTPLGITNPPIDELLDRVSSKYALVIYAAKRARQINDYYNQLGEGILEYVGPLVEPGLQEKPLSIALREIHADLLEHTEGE
Chain of Mycobacterium tuberculosis RNA polymerase (P9WGY9 whole entry, the tested form may be a part): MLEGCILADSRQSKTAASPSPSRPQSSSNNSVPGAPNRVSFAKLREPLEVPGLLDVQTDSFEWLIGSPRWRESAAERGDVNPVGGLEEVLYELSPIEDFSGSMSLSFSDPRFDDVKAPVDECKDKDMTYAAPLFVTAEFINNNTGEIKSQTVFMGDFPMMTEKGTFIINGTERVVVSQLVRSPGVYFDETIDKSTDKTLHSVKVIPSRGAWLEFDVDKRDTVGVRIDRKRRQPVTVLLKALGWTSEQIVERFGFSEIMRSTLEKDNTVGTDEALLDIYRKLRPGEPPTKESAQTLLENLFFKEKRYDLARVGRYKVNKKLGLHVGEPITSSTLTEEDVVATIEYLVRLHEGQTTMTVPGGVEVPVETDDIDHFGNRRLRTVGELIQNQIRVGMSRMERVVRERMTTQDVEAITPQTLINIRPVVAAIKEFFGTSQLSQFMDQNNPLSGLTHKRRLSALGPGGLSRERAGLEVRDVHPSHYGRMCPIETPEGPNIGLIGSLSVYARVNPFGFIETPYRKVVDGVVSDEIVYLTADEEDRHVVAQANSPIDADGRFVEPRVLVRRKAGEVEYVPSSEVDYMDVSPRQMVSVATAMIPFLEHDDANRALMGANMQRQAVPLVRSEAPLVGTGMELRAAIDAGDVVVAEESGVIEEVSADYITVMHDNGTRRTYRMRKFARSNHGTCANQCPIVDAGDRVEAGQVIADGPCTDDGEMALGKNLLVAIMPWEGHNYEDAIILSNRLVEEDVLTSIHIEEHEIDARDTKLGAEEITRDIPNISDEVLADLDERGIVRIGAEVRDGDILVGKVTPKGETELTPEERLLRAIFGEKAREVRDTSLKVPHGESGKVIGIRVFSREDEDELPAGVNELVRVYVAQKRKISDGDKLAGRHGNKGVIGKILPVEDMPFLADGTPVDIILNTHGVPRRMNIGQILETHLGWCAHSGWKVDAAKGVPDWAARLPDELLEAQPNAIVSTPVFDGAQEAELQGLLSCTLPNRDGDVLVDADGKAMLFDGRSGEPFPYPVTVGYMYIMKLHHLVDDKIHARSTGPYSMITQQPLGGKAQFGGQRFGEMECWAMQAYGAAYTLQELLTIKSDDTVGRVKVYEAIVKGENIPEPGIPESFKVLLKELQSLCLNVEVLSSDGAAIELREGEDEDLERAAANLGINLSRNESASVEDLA
Chain of Mycobacterium tuberculosis RNA polymerase (P9WGI1 whole entry, further chain, the tested form may be a part): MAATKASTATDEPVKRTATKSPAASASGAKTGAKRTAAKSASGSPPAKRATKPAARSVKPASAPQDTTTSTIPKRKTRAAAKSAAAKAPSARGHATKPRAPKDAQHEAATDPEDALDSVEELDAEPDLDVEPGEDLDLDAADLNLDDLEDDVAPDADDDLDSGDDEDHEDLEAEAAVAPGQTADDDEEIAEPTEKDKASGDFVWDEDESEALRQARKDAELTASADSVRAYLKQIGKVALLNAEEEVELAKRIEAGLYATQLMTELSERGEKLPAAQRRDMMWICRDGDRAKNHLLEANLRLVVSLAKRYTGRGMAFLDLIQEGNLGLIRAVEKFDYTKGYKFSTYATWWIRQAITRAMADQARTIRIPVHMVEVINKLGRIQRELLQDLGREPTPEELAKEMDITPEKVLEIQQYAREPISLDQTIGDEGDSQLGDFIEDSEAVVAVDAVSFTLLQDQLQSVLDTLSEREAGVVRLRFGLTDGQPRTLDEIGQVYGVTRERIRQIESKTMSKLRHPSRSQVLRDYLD
Chain of Mycobacterium tuberculosis RNA polymerase (P9WGY7 whole entry, the tested form may be a part): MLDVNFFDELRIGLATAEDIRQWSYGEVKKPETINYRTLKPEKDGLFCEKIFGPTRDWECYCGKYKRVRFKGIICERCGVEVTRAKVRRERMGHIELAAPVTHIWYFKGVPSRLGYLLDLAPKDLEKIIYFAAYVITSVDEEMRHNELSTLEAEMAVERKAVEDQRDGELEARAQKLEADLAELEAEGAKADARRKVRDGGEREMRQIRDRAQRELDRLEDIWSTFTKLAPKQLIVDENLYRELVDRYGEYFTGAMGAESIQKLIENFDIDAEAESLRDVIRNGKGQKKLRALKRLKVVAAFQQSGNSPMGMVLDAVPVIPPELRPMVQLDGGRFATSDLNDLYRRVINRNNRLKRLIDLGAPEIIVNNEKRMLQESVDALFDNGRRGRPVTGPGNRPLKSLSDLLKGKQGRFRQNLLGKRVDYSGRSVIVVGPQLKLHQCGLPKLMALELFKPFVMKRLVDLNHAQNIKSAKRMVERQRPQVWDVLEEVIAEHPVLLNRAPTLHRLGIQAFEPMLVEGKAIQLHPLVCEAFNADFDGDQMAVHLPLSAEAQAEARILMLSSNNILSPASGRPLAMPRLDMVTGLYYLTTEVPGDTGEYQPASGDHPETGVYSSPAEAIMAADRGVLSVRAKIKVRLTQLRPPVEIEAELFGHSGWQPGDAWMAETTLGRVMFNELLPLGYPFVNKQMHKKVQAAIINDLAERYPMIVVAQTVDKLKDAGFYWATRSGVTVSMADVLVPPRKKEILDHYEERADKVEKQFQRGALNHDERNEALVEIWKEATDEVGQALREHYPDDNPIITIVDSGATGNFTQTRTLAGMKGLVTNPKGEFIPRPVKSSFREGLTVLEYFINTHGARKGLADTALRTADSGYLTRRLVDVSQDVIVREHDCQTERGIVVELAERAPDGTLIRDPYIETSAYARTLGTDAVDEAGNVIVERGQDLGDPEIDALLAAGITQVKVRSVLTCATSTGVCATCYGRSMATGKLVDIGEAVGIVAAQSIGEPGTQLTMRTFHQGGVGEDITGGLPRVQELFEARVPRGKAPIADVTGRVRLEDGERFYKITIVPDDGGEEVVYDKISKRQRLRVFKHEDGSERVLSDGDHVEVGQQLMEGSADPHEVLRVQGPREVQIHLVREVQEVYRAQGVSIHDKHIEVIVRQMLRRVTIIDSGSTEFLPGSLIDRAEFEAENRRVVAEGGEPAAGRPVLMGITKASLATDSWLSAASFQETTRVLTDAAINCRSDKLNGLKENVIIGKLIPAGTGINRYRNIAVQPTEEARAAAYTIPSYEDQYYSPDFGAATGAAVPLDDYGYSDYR

Row | Structure (SMILES) | MIC [1] [µg/mL] | MIC [2] [µg/mL] | MIC [3, 9] [µg/mL] | cross-resistance of AAP1-resistant mutants to the compound [4] | cross-resistance of rifampin-resistant mutants to the compound [5] | MCC mammalian cells Vero E6 ATCC CRL1586 [6] [µg/mL] | IC50 [7] [nM] | MIC [8] [µg/mL] | MIC ([3]; ATCC19420, read-out: MIC with wild-type rpoB and wild-type rpoC, M. smegmatis ATCC19420 wild type, reference for AAP1-resistant mutants) [µg/mL] | hypersensitivity of AAP1-resistant mutants to the compound [4]
1 | Cc1ccccc1NC(=O)C(Cc1ccc(O)cc1)NC(=O)c1ccccc1 (stereo not shown) [I-13, N-(3-(4-hydroxyphenyl)-1-oxo-1-(o-tolylamino)propan-2-yl)benzamide] | 12.5 (≈ 33.4 µM) | 25 (≈ 66.8 µM) | 0.195 (≈ 0.521 µM) | cross-resistance | No rifampin-resistant mutant was found to exhibit cross-resistance | 37 |  |  |  | 
2 | Cc1ccccc1NC(=O)C(Cc1ccccc1)NC(=O)c1ccccc1F (stereo not shown) [I-80] | 3.12 (≈ 8.29 µM) | 6.25 (≈ 16.6 µM) | 0.39 (≈ 1.04 µM) |  | No rifampin-resistant mutant was found to exhibit cross-resistance | 43 | 2800 |  |  | 
3 | Cc1ccc(Cl)cc1NC(=O)C(Cc1ccccc1)NC(=O)c1ccccc1 (stereo not shown) [I-86] | 1.56 (≈ 3.97 µM) | 3.12 (≈ 7.95 µM) | 0.195 (≈ 0.496 µM) |  | No rifampin-resistant mutant was found to exhibit cross-resistance | 13 | 920 |  |  | 
4 | Cc1ccc(Cl)cc1NC(=O)C(Cc1ccccc1)NC(=O)c1ccccc1F (stereo not shown) [IX-55, N-(1-((5-chloro-2-methylphenyl)amino)-1-oxo-3-phenylpropan-2-yl)-2-fluorobenzamide] | 1.56 (≈ 3.8 µM) | 3.12 (≈ 7.61 µM) | 0.39 (≈ 0.949 µM) | cross-resistance |  | 10 | 470 |  |  | 
5 | COc1ccc(F)cc1NC(=O)C(Cc1ccccc1)NC(=O)c1ccccc1 (stereo not shown) [IX-73, N-(1-((5-fluoro-2-methoxyphenyl)amino)-1-oxo-3-phenylpropan-2-yl)benzamide] | 1.56 (≈ 3.98 µM) | 0.78 (≈ 1.99 µM) | 0.19 (≈ 0.484 µM) | cross-resistance |  | >100 |  |  |  | 
6 | O=C(NC(Cc1ccccc1)C(=O)Nc1ccccc1N1CCNCC1)c1ccccc1F (stereo not shown) [IX-211, 2-fluoro-N-(1-oxo-3-phenyl-1-((2-(piperazin-1-yl)phenyl)amino)-propan-2-yl)benzamide] | 1.56 (≈ 3.49 µM) | 1.56 (≈ 3.49 µM) | 0.09 (≈ 0.202 µM) | cross-resistance |  | 18 |  |  |  | 
7 | Cc1ccccc1C(=O)NC(Cc1ccccc1)C(=O)Nc1ccccc1N1CCNCC1 (stereo not shown) [IX-212, 2-methyl-N-(1-oxo-3-phenyl-1-((2-(piperazin-1-yl)phenyl)amino)-propan-2-yl)benzamide] | 1.56 (≈ 3.52 µM) | 1.56 (≈ 3.52 µM) | 0.097 (≈ 0.219 µM) | cross-resistance |  | 15 |  |  |  | 
8 | O=C(NC(Cc1ccccc1)C(=O)Nc1ccccc1N1CCNCC1)c1cccs1 (stereo not shown) [IX-213, N-(1-oxo-3-phenyl-1-((2-(piperazin-1-yl)phenyl)amino)propan-2-yl)thiophene-2-carboxamide] | 1.56 (≈ 3.59 µM) | 0.78 (≈ 1.79 µM) | 0.097 (≈ 0.223 µM) | cross-resistance |  | 33 |  |  |  | 
9 | O=C(N[C@H](Cc1ccccc1)C(=O)Nc1cc(F)ccc1N1CCNCC1)c1ccccc1F [IX-214a, (R)-2-fluoro-N-(1-((5-fluoro-2-(piperazin-1-yl)phenyl)amino)-1-oxo-3-phenylpropan-2-yl)benzamide] | 0.78 (≈ 1.68 µM) | < 0.195 | 0.073 (≈ 0.157 µM) |  |  |  |  | ≥ 0.073 |  | 
10 | Cc1ccccc1C(=O)NC(Cc1ccccc1)C(=O)Nc1cc(F)ccc1N1CCNCC1 (stereo not shown) [IX-215, N-(1-((5-fluoro-2-(piperazin-1-yl)phenyl)amino)-1-oxo-3-phenylpropan-2-yl)-2-methylbenzamide] | 1.56 (≈ 3.39 µM) | 0.78 (≈ 1.69 µM) | 0.19 (≈ 0.413 µM) | cross-resistance | No rifampin-resistant mutant was found to exhibit cross-resistance | 7 | 140 |  |  | 
11 | O=C(NC(Cc1ccccc1)C(=O)Nc1cc(F)ccc1N1CCNCC1)c1cccs1 (stereo not shown) [IX-216, N-(1-((5-fluoro-2-(piperazin-1-yl)phenyl)amino)-1-oxo-3-phenylpropan-2-yl)thiophene-2-carboxamide] | 1.56 (≈ 3.45 µM) | 0.78 (≈ 1.72 µM) | 0.097 (≈ 0.214 µM) | cross-resistance | No rifampin-resistant mutant was found to exhibit cross-resistance | 11 | 280 |  |  | 
12 | O=C(NC(Cc1ccccc1)C(=O)Nc1cccc2scnc12)c1ccccc1 (stereo not shown) [IX-235, N-(1-(benzo[d]thiazol-4-ylamino)-1-oxo-3-phenylpropan-2-yl)benz-amide] | 3.12 (≈ 7.78 µM) | 6.25 (≈ 15.6 µM) | 0.78 (≈ 1.94 µM) | cross-resistance |  |  |  |  |  | 
13 | O=C(NC(Cc1ccccc1)C(=O)Nc1cc(F)ccc1N1CCNCC1)c1ccccc1 (stereo not shown) [IX-245, N-(1-((5-fluoro-2-(piperazin-1-yl)phenyl)amino)-1-oxo-3-phenyl-propan-2-yl)benzamide] | 1.56 (≈ 3.49 µM) | 0.78 (≈ 1.75 µM) | 0.39 (≈ 0.873 µM) |  |  | 17 | 220 |  |  | 
14 | Cc1ccccc1C(=O)NC(Cc1ccccc1)C(=O)Nc1cc(Cl)ccc1N1CCNCC1 (stereo not shown) [IX-275, N-(1-((5-chloro-2-(piperazin-1-yl)phenyl)amino)-1-oxo-3-phenyl-propan-2-yl)-2-methylbenzamide] | 1.56 (≈ 3.27 µM) | 0.78 (≈ 1.64 µM) | 0.39 (≈ 0.818 µM) | cross-resistance |  | 12.5 | 100 |  |  | 
15 | COc1ccc(F)cc1NC(=O)C(Cc1ccccc1)NC(=O)c1ccccc1F (stereo not shown) [IX-276, 2-fluoro-N-(1-((5-fluoro-2-methoxyphenyl)amino)-1-oxo-3-phenyl-propan-2-yl)benzamide] | 0.16 (≈ 0.39 µM) | 0.78 (≈ 1.9 µM) | 0.39 (≈ 0.95 µM) | cross-resistance |  |  |  |  |  | 
16 | NC1CCN(c2ccc(F)cc2NC(=O)C(Cc2ccccc2)NC(=O)c2ccccc2F)CC1 (stereo not shown) [IX-312, N-(1-((2-(4-aminopiperidin-1-yl)-5-fluorophenyl)amino)-1-oxo-3-phenylpropan-2-yl)-2-fluorobenzamide] | 3.13 (≈ 6.54 µM) | 3.13 (≈ 6.54 µM) | 0.195 (≈ 0.407 µM) | cross-resistance |  |  |  |  |  | 
17 | O=C(NC(Cc1ccccc1)C(=O)Nc1cc(F)ccc1N1CC2CNCC2C1)c1ccccc1F (stereo not shown) [IX-313, 2-fluoro-N-(1-((5-fluoro-2-(hexahydropyrrolo[3,4-c]pyrrol-2(1H)-yl)phenyl)amino)-1-oxo-3-phenylpropan-2-yl)benzamide] | 1.56 (≈ 3.18 µM) | 1.56 (≈ 3.18 µM) | 0.39 (≈ 0.795 µM) | cross-resistance |  |  |  |  |  | 
18 | O=C(NC(Cc1ccccc1)C(=O)Nc1cc(F)ccc1N1CCNCC1)c1ccccc1Br (stereo not shown) [IX-315, 2-bromo-N-(1-((5-fluoro-2-(piperazin-1-yl)phenyl)amino)-1-oxo-3-phenylpropan-2-yl)benzamide] | 3.12 (≈ 5.95 µM) | 1.56 (≈ 2.97 µM) | 0.39 (≈ 0.742 µM) |  |  | 12.5 | 210 |  |  | 
19 | CO[C@H]1/C=C/O[C@@]2(C)Oc3c(C)c(O)c4c(O)c(c(/C=N/N5CCN(C)CC5)c(O)c4c3C2=O)NC(=O)/C(C)=C\C=C\[C@H](C)[C@H](O)[C@@H](C)[C@@H](O)[C@@H](C)[C@H](OC(C)=O)[C@@H]1C [rifampin, reference compound] |  |  |  | No AAP1-resistant mutant was found to exhibit cross-resistance |  |  |  |  | 3.13 (≈ 3.8 µM) | Some AAP1 resistant mutants were found to be hypersensitive
